Here are results for two molecules from patent publication US11571405B2, “Compositions for improving sexual function” (INXO A/S, priority 2018, dated 2023).

Data set [1] in a line: Inventors' findings on amounts of L-arginine and L-citrulline in the unit dosage. The class given is in vivo. An excerpt: Furthermore, higher amounts of L-arginine worsened the organoleptic properties of the unit dosage.
In an embodiment of the invention, the unit dosage comprises L-citrulline or a physiologically acceptable salt or hydrate thereof in the range from 0.5-3.0 g, such as 0.5-2.9 g, preferably 0.5-2.8 g, more preferably 0.5-2.7 g, such as 0.7-2.0 g, preferably 0.9-2.0 g, more preferably 1.1-2.0 g, even more preferably 1.3-2.0 g, most preferably 1.5-2.0 g.

The conditions of data set [2]: oral; cited from earlier work.

For the molecule `N=C(N)NCCC[C@H](N)C(=O)O` [L-arginine], in data set [1], the “amount above which side effects occurred in some instances (e.g. stomachache)” value was “above 10 g” and the “most efficacious amount in the unit dosage” value was found to be 6.0 g. Besides, in data set [2], the “level above which some adverse effects, most commonly diarrhea, have been seen” value is listed as “above 20 g per day”.

Take `NC(=O)NCCC[C@H](N)C(=O)O` [L-citrulline]: the “amount above which efficacy of a unit dosage was not improved further (plateau of efficacy)” value in data set [1] is listed as “above 2.0 g”.
